Results published in the supplement of paper PMC10307832.

Legend:
Assay in all cases: relative viability (nuclei count vs DMSO), 5 days (fraction); higher = more cells survive
[1] = compound: C[C@@]1(C(=O)Nc2ccc(F)nc2)CCCN1c1nc(Nc2cc(C3CC3)n[nH]2)c2cccn2n1 + CS(=O)(=O)N1CCN(Cc2cc3nc(-c4cccc5[nH]ncc45)nc(N4CCOCC4)c3s2)CC1 [Pictilisib] (partner 1 µM)
Method in brief: (§1)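 Lung cancer cell lines in 1536-well plates got either a single drug or a fixed anchor-drug dose together with five library-drug doses (not always all listed) in √10 steps, by pin tool, on the day after seeding. Nuclei were counted after 5 days, and relative viability is the treated-to-vehicle ratio of nuclei counts. Values are medians of duplicate plates.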

[2] = compound: C[C@@]1(C(=O)Nc2ccc(F)nc2)CCCN1c1nc(Nc2cc(C3CC3)n[nH]2)c2cccn2n1 + CC(=O)c1c(C)c2cnc(Nc3ccc(N4CCNCC4)cn3)nc2n(C2CCCC2)c1=O [Palbociclib] (partner 0.5 µM)
Method in brief: as §1

[3] = compound: C[C@@]1(C(=O)Nc2ccc(F)nc2)CCCN1c1nc(Nc2cc(C3CC3)n[nH]2)c2cccn2n1 + O=C(c1cc(Cc2n[nH]c(=O)c3ccccc23)ccc1F)N1CCN(C(=O)C2CC2)CC1 [Olaparib] (partner 8 µM)
Method in brief: as §1

[4] = compound: CC1(C)CNc2cc(NC(=O)c3cccnc3NCc3ccncc3)ccc21 [Motesanib] + CC(=O)c1c(C)c2cnc(Nc3ccc(N4CCNCC4)cn3)nc2n(C2CCCC2)c1=O [Palbociclib] (partner 0.5 µM)
Method in brief: as §1

Cell Line | relative viability ([1]; first compound 0.04 µM) | relative viability ([1]; first compound 0.1265 µM) | relative viability ([1]; first compound 0.4 µM) | relative viability ([1]; first compound 1.265 µM) | relative viability ([2]; first compound 0.04 µM) | relative viability ([2]; first compound 0.1265 µM) | relative viability ([2]; first compound 0.4 µM) | relative viability ([2]; first compound 1.265 µM) | relative viability ([3]; first compound 0.04 µM) | relative viability ([3]; first compound 0.1265 µM) | relative viability ([3]; first compound 0.4 µM) | relative viability ([3]; first compound 1.265 µM) | relative viability ([4]; first compound 0.01 µM) | relative viability ([4]; first compound 0.03162 µM) | relative viability ([4]; first compound 0.1 µM) | relative viability ([4]; first compound 0.3162 µM) | relative viability ([4]; first compound 1 µM)
NCI-H358 | 0.259 | 0.237 | 0.173 | 0.277 | 0.112 | 0.121 | 0.115 | 0.107 | 0.477 | 0.311 | 0.183 | 0.233 | 0.142 | 0.133 | 0.132 | 0.161 | 0.13
NCI-H441 | 0.455 | 0.337 | 0.36 | 0.375 | 0.132 | 0.146 | 0.116 | 0.13 | 0.373 | 0.368 | 0.345 | 0.332 | 0.237 | 0.214 | 0.268 | 0.2 | 0.23
NCI-H460 | 0.299 | 0.202 | 0.184 | 0.236 | 0.226 | 0.0841 | 0.058 | 0.143 | 0.495 | 0.334 | 0.346 | 0.23 | 0.278 | 0.162 | 0.142 | 0.197 | 0.137
NCI-H520 | 0.317 | 0.298 | 0.284 | 0.361 | 0.254 | 0.196 | 0.201 | 0.218 | 0.334 | 0.33 | 0.298 | 0.291 | 0.209 | 0.215 | 0.235 | 0.234 | 0.225
NCI-H647 | 0.443 | 0.24 | 0.334 | 0.348 | 0.398 | 0.413 | 0.353 | 0.367 | 0.607 | 0.487 | 0.368 | 0.505 | 0.428 | 0.262 | 0.395 | 0.423 | 0.466
NCI-H650 | 0.916 | 0.651 | 0.689 | 0.722 | 0.305 | 0.211 | 0.263 | 0.256 | 0.372 | 0.326 | 0.281 | 0.237 | 0.32 | 0.3 | 0.356 | 0.319 | 0.341
NCI-H661 | 0.432 | 0.355 | 0.408 | – | 0.388 | 0.427 | 0.412 | 0.386 | 0.742 | 0.849 | 0.778 | 0.634 | 0.43 | 0.414 | 0.43 | 0.435 | 0.402
NCI-H727 | 0.328 | 0.179 | 0.306 | 0.155 | 0.575 | 0.528 | 0.404 | 0.38 | 0.746 | 0.506 | 0.476 | 0.416 | 0.631 | 0.652 | 0.687 | 0.639 | 0.606
NCI-H838 | 0.514 | 0.379 | 0.263 | 0.365 | 0.241 | 0.191 | 0.185 | 0.17 | 0.726 | 0.636 | 0.555 | 0.388 | 0.204 | 0.203 | 0.213 | 0.198 | 0.241
NCI-H1355 | 0.428 | 0.462 | 0.332 | 0.439 | 0.312 | 0.269 | 0.242 | 0.321 | 0.661 | 0.59 | 0.561 | 0.572 | 0.429 | 0.413 | 0.397 | 0.392 | 0.38
NCI-H1395 | 0.664 | 0.436 | 0.761 | 0.788 | 0.658 | 0.603 | 0.609 | 0.625 | 0.505 | 0.437 | 0.408 | 0.497 | 0.682 | 0.602 | 0.623 | 0.661 | 0.661
NCI-H1437 | 0.271 | 0.295 | 0.248 | 0.363 | 0.302 | 0.278 | 0.252 | 0.234 | 0.666 | 0.631 | 0.576 | 0.59 | 0.271 | 0.266 | 0.295 | 0.302 | 0.278
NCI-H1650 | 0.561 | 0.489 | 0.533 | 0.403 | 0.324 | 0.36 | 0.328 | 0.314 | 0.692 | 0.846 | 0.678 | 0.729 | 0.351 | 0.385 | 0.349 | 0.346 | 0.343
NCI-H1651 | 0.484 | 0.447 | 0.39 | 0.538 | 0.494 | 0.442 | 0.439 | 0.491 | 0.2 | 0.183 | 0.196 | 0.201 | 0.528 | 0.523 | 0.538 | 0.508 | 0.513
NCI-H1666 | 0.364 | 0.378 | 0.447 | 0.38 | 0.647 | 0.627 | 0.599 | 0.603 | 0.707 | 0.73 | 0.713 | 0.724 | 0.649 | 0.577 | 0.679 | 0.751 | 0.63
NCI-H1734 | 0.381 | 0.301 | 0.321 | 0.296 | 0.275 | 0.236 | 0.226 | 0.282 | 0.506 | 0.405 | 0.385 | 0.436 | 0.359 | 0.349 | 0.387 | 0.348 | 0.324
NCI-H1755 | 0.481 | 0.241 | 0.307 | 0.381 | 0.403 | 0.433 | 0.469 | 0.494 | 0.93 | 0.73 | 0.759 | 0.851 | 0.459 | 0.46 | 0.487 | 0.477 | 0.48
NCI-H1792 | 0.257 | 0.266 | 0.201 | 0.318 | 0.417 | 0.742 | 0.268 | 0.393 | 0.194 | 0.175 | 0.0767 | 0.161 | – | 0.583 | 0.653 | 0.675 | 0.667
NCI-H1793 | 0.338 | 0.284 | 0.323 | 0.293 | 0.367 | 0.294 | 0.225 | 0.289 | 0.751 | 0.668 | 0.475 | 0.772 | 0.351 | 0.306 | 0.335 | 0.277 | 0.334
